Read-outs that look alike come from different tables or passages of the source.
Key:
Drosophila OR85b = target: T1, Drosophila OR85b (Drosophila melanogaster, UniProt Q9VHQ7); assay: Calcium ion fluorescence (GCaMP6) assay, OR85b stable HEK293 cell line; format: cell-based; conditions: for activation at 1 µM / activation at 10 µM / activation at 100 µM: HEK293, read-out: OR85b response (VUAA1-normalized response); for Average response / OR85b response (VUAA1-normalized) at 1 μM / OR85b response (VUAA1-normalized) at 10 μM / OR85b response (VUAA1-normalized) at 100 μM: OR85b cell line; for Average response: VUAA1-normalized response, mean of biological replicates
T1 construct: expressed in transfected cells
T1 sequence (Q9VHQ7 1-390): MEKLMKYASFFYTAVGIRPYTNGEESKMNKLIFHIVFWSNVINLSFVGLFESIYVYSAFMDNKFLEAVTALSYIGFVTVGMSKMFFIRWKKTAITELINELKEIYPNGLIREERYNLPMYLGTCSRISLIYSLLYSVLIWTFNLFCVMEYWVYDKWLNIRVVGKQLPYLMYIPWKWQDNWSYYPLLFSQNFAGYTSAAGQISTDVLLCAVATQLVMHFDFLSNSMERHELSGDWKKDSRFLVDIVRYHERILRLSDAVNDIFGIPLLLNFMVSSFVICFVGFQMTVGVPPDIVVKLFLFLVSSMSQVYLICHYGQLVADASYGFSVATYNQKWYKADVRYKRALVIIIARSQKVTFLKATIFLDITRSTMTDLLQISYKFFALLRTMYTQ
T1 sequence (Q9VNB5 1-486 partner): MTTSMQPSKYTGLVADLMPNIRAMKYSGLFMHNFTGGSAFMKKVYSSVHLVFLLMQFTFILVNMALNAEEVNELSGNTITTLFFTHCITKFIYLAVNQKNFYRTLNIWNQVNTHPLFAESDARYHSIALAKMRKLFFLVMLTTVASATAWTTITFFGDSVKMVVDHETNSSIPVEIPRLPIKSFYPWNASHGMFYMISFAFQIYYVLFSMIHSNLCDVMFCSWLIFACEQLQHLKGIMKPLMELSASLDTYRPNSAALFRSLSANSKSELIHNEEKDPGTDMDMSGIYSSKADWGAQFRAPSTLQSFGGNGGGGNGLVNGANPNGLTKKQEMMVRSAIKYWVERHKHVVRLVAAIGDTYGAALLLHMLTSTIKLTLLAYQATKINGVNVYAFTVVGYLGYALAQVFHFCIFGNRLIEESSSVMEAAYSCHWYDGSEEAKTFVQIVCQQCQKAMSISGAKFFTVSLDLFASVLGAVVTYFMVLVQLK
How it was run: (§1)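 HEK293 lines stably expressing each Drosophila OR with GCaMP6, doxycycline-induced (1 μg/mL) 48 or 72 h. Fluorescence recorded 5 s baseline then 30 s after VOC injection at pH 7.3; ΔF=(FMAX−F0)/F0, normalized to 50 µM VUAA1 response per line, triplicate wells averaged; concentration series 0.01–100 μM.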

Drosophila OR98a = target: T2, Drosophila OR98a (Drosophila melanogaster, UniProt Q9VAZ3); assay: Calcium ion fluorescence (GCaMP6) assay, OR98a stable HEK293 cell line; format: cell-based; conditions: for OR98a response (VUAA1-normalized) at 1 μM / OR98a response (VUAA1-normalized) at 10 μM / OR98a response (VUAA1-normalized) at 100 μM / Average response: OR98a cell line; for Average response: average of biological replicates, fraction of VUAA1 response
T2 construct: expressed in transfected cells
T2 sequence (Q9VAZ3 1-397): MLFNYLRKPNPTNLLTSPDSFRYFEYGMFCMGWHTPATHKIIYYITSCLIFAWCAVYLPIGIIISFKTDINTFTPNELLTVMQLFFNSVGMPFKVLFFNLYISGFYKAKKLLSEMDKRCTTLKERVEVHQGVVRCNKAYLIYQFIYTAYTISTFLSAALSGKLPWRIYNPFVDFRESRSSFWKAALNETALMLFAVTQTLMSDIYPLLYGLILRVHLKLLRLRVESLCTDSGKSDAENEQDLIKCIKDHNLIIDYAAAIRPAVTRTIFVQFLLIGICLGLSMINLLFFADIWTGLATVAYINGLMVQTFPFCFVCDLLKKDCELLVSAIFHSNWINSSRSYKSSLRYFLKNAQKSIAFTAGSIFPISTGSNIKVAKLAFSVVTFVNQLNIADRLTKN
T2 sequence (Q9VNB5 1-486 partner): T1 sequence (Q9VNB5 1-486 partner)
How it was run: as §1

[1] = ligand concentration 1 (unit not given), threshold 0.05, below shown as 0
[2] = ligand concentration 10 (unit not given), threshold 0.05, below shown as 0
[3] = ligand concentration 100 (unit not given), threshold 0.05, below shown as 0
[4] = HEK293, read-out: Average response
[5] = HEK293, read-out: OR98a response (VUAA1-normalized response)
[6] = ligand concentration 1 (unit not given), 0.05 threshold, values below shown as 0
[7] = ligand concentration 10 (unit not given), 0.05 threshold, values below shown as 0
[8] = ligand concentration 100 (unit not given), 0.05 threshold, values below shown as 0
[9] = HEK293, read-out: OR98a Average response (VUAA1-normalized)
[10] = concentration 1, normalized fluorescence change, values below 0.05 threshold given as 0
[11] = concentration 10, normalized fluorescence change, values below 0.05 threshold given as 0
[12] = concentration 100, normalized fluorescence change, values below 0.05 threshold given as 0

Compound | activation at 1 µM (Drosophila OR85b) [%] | activation at 10 µM (Drosophila OR85b) [%] | Average response (Drosophila OR85b; cc. 1 µM) | Average response (Drosophila OR85b; cc. 10 µM) | Average response (Drosophila OR85b; cc. 100 µM) | DF norm AVERAGE OR85b (Drosophila OR85b; [1]) | DF norm AVERAGE OR85b (Drosophila OR85b; [2]) | DF norm AVERAGE OR85b (Drosophila OR85b; [3]) | activation at 1 µM (Drosophila OR98a; [4]) [%] | activation at 10 µM (Drosophila OR98a; [4]) [%] | activation at 100 µM (Drosophila OR98a; [4]) [%] | DF norm AVERAGE OR98a (Drosophila OR98a; [1]) | DF norm AVERAGE OR98a (Drosophila OR98a; [2]) | DF norm AVERAGE OR98a (Drosophila OR98a; [3]) | OR85b response (VUAA1-normalized) at 1 μM (Drosophila OR85b; VOC concentration 1 μM) | OR85b response (VUAA1-normalized) at 10 μM (Drosophila OR85b; VOC concentration 10 μM) | OR85b response (VUAA1-normalized) at 100 μM (Drosophila OR85b; VOC concentration 100 μM) | OR98a response (VUAA1-normalized) at 1 μM (Drosophila OR98a; VOC concentration 1 μM) | OR98a response (VUAA1-normalized) at 10 μM (Drosophila OR98a; VOC concentration 10 μM) | OR98a response (VUAA1-normalized) at 100 μM (Drosophila OR98a; VOC concentration 100 μM) | also measured
CC1=CC[C@@H](C(C)(C)O)CC1 [alpha-terpineol] | 0 | 0 | 0.05 | 0.03 | 0.02 | 0 | 0 | 0 | 0 | 1.81 | 6.45 | 0 | 0 | 0.06455 |  |  |  |  |  |  | activation at 100 µM (Drosophila OR85b): 0%; activation at 1 µM (Drosophila OR98a; [5]): 0%; activation at 10 µM (Drosophila OR98a; [5]): 0%; activation at 100 µM (Drosophila OR98a; [5]): 6.45%
Cc1ccccc1C [o-xylene] |  |  | 0.08 | 0.03 | 0.08 | 0.08035 | 0 | 0.08274 | 0 | 0 | 0 | 0 | 0 | 0 | 0.08 | 0.00 | 0.08 | 0.00 | 0.00 | 0.00 | 
CCCCCCCCCCCCCC [tetradecane] |  |  | 0.10 | 0.0844 | 0.04 |  |  |  | 0 | 12 | 10 |  |  |  | 0.10 | 0.0844 | 0.00 | 0.00 | 0.12 | 0.10 | DF norm AVERAGE OR85b (Drosophila OR85b; [6]): 0.0972; DF norm AVERAGE OR85b (Drosophila OR85b; [7]): 0.08442; DF norm AVERAGE OR85b (Drosophila OR85b; [8]): 0; activation at 1 µM (Drosophila OR98a; [9]): 0%; activation at 10 µM (Drosophila OR98a; [9]): 12%; activation at 100 µM (Drosophila OR98a; [9]): 10%; DF norm AVERAGE OR98a (Drosophila OR98a; [6]): 0; DF norm AVERAGE OR98a (Drosophila OR98a; [7]): 0.1151; DF norm AVERAGE OR98a (Drosophila OR98a; [8]): 0.09569
Cc1cccc(C)c1 [m-xylene] |  |  | 0.023 | 0.00 | 0.09 | 0 | 0 | 0.08801 | 0 | 0 | 2.54 | 0 | 0 | 0 | 0.00 | 0.00 | 0.09 | 0.00 | 0.00 | 0.00 | 
CC1=CCC2CC1C2(C)C (stereo not drawn) [alpha-pinene] | 0 | 0 | 0.03 | 0.00 | 0.0358 | 0 | 0 | 0 | 0 | 0 | 0 | 0 | 0 | 0 |  |  |  |  |  |  | activation at 100 µM (Drosophila OR85b): 0%; activation at 1 µM (Drosophila OR98a; [5]): 0%; activation at 10 µM (Drosophila OR98a; [5]): 0%; activation at 100 µM (Drosophila OR98a; [5]): 0%
CCCCCCCO [1-heptanol] | 0 | 0 | 0.00 | 0.00 | 0.00 |  |  |  | 4 | 5 | 0 |  |  |  |  |  |  |  |  |  | activation at 100 µM (Drosophila OR85b): 0%; DF norm AVERAGE OR85b (Drosophila OR85b; [10]): 0; DF norm AVERAGE OR85b (Drosophila OR85b; [11]): 0; DF norm AVERAGE OR85b (Drosophila OR85b; [12]): 0; activation at 1 µM (Drosophila OR98a; [5]): 0%; activation at 10 µM (Drosophila OR98a; [5]): 5%; activation at 100 µM (Drosophila OR98a; [5]): 0%; DF norm AVERAGE OR98a (Drosophila OR98a; [10]): 0; DF norm AVERAGE OR98a (Drosophila OR98a; [11]): 0.05219; DF norm AVERAGE OR98a (Drosophila OR98a; [12]): 0
CCCOC(C)=O [propyl acetate] |  |  | 0.0538 | 0.0361 | 0.00 | 0.05375 | 0 | 0 | 10 | 8 | 11 | 0.09538 | 0.07848 | 0.1069 | 0.0538 | 0.00 | 0.00 | 0.10 | 0.08 | 0.11 | activation at 1 µM (Drosophila OR98a; [9]): 10%; activation at 10 µM (Drosophila OR98a; [9]): 8%; activation at 100 µM (Drosophila OR98a; [9]): 11%
C=C1[C@H]2CC[C@@H]3[C@H]2C(C)(C)CCC[C@]13C [(+)-longifolene] |  |  | 0.08 | 0.11 | 0.05 |  |  |  |  |  |  |  |  |  |  |  |  |  |  |  | OR85b response (VUAA1-normalized response) (Drosophila OR85b; VOC concentration 1 μM): 0.08; OR85b response (VUAA1-normalized response) (Drosophila OR85b; VOC concentration 10 μM): 0.11; OR85b response (VUAA1-normalized response) (Drosophila OR85b; VOC concentration 100 μM): 0.00; DF norm AVERAGE OR85b (Drosophila OR85b; [10]): 0.0834; DF norm AVERAGE OR85b (Drosophila OR85b; [11]): 0.1092; DF norm AVERAGE OR85b (Drosophila OR85b; [12]): 0; OR98a response (VUAA1-normalized response) (Drosophila OR98a; VOC concentration 1 μM): 0.00; OR98a response (VUAA1-normalized response) (Drosophila OR98a; VOC concentration 10 μM): 0.13; OR98a response (VUAA1-normalized response) (Drosophila OR98a; VOC concentration 100 μM): 0.00; Average response (Drosophila OR98a; cc. 1 µM): 0.0106; Average response (Drosophila OR98a; cc. 10 µM): 0.13; Average response (Drosophila OR98a; cc. 100 µM): 0.0176; DF norm AVERAGE OR98a (Drosophila OR98a; [10]): 0; DF norm AVERAGE OR98a (Drosophila OR98a; [11]): 0.1258; DF norm AVERAGE OR98a (Drosophila OR98a; [12]): 0
CC/C=C\CCO [Z-3-hexenol] |  |  |  |  |  |  |  |  |  |  |  |  |  |  | 0.0533 | 0.00 | 0.00 | 0.00 | 0.17 | 0.11 | 

Source: publication PMC10709440, “High-throughput ligand profile characterization in novel cell lines expressing seven heterologous insect olfactory receptors for the detection of volatile plant biomarkers” (Scientific Reports, 2023)
